The results in this text go back to paper PMC9706563, “Development of Macrocyclic PRMT5–Adaptor Protein Interaction Inhibitors” (Journal of Medicinal Chemistry, 2022).

Square brackets hold non-standard residues; d marks the D form. Peptide text beside a SMILES is read from it. * marks the point of attachment. FITC = O=C1OC2(c3ccc(O)cc3Oc3cc(O)ccc32)c2ccc(NC(=S)*)cc21; Bpa = N[C@@H](Cc1ccc(C(=O)c2ccccc2)cc1)C(=O)O; Gla = N[C@@H](CC(C(=O)O)C(=O)O)C(=O)O; Phe(2-I) = N[C@@H](Cc1ccccc1I)C(=O)O; hPhe = N[C@@H](CCc1ccccc1)C(=O)O; 2Pal = N[C@@H](Cc1ccccn1)C(=O)O; NMeD = CN[C@@H](CC(=O)O)C(=O)O; NMeV = CN[C@H](C(=O)O)C(C)C; Dab = NCC[C@H](N)C(=O)O; Alloc = C=CCOC(=O)* Bounds are passed on as bounds.

The term Kd denotes the constant that tells how readily two partners part at equilibrium.

T1 sequence (O14744 whole entry): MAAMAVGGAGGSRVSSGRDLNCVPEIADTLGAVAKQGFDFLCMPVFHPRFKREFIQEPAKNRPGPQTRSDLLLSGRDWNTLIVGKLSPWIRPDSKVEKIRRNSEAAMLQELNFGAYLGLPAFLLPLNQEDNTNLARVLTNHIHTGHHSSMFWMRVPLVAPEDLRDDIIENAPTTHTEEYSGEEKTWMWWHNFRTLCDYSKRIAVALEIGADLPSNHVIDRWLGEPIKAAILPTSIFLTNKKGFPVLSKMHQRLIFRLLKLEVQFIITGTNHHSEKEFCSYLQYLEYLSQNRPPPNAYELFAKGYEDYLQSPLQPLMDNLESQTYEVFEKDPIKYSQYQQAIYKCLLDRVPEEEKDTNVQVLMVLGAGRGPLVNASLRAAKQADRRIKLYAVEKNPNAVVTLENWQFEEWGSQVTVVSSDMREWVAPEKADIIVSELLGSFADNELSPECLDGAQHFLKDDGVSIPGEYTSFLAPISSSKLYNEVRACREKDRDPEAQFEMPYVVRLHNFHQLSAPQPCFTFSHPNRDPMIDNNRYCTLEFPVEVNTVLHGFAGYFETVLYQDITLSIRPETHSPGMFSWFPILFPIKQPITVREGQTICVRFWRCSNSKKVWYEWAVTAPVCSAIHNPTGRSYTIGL
T1 sequence (Q9BQA1 whole entry partner): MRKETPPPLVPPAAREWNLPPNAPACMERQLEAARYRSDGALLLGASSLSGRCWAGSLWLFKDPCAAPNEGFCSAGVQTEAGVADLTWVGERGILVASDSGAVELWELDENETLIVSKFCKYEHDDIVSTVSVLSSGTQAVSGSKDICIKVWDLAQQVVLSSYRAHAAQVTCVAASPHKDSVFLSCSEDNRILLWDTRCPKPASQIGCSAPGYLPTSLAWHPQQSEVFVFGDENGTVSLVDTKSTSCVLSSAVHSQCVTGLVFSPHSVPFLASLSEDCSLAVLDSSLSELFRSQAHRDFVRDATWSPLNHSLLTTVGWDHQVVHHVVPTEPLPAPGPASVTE

One test has as its target T1, PRMT5-MEP50 (Homo sapiens, UniProt O14744).
T1 construct: The compounds were tested by means of FP with the full-length PRMT5-MEP50 complex; made in house
Put plainly: Direct binding fluorescence polarization (FP) assay of FITC-labeled peptides. The following applies: FITC-labeled peptide 1 nM, PRMT5-MEP50 titrated, read-out: KD. (In general: Polarisation of emitted light reports the rotation of a fluorescent probe.)
Experimental: The assay was performed in a buffer of 50 mM 4-(2-hydroxyethyl)-1-piperazineethanesulfonic acid (HEPES), 250 mM NaCl, 1 mM tris(2-carboxyethyl)phosphine (TCEP), and 0.01% (v/v) Tween 20, pH 8.0, in black, 384-well plates with a total volume of 10 μL per well. […] The plates were incubated at room temperature for 1 to 2 h and analyzed on a plate reader using 485 nm excitation and 535 nm emission wavelength. The assay was performed in triplicate.
With `CC(=O)N[C@H](C(=O)N1CCC[C@H]1C(=O)NCC(=O)N[C@@H](CCC(N)=O)C(=O)N[C@@H](Cc1ccccc1)C(=O)N[C@@H](CC(=O)O)C(=O)N[C@@H](CC(=O)O)C(=O)N[C@@H](C)C(=O)N(C)[C@@H](CC(=O)O)C(=O)N[C@@H](CCCCNC(=S)Nc1ccc2c(c1)C(=O)OC21c2ccc(O)cc2Oc2cc(O)ccc21)C(N)=O)C(C)C` [Compound 44] (Ac-VPGQFDDA[NMeD]K(FITC)-NH2), the Kd stood at 0.6 ± 0.1 µM.

As for `CC(C)[C@H](NC(=O)COCCOCCNC(=S)Nc1ccc2c(c1)C(=O)OC21c2ccc(O)cc2Oc2cc(O)ccc21)C(=O)N1CCC[C@H]1C(=O)NCC(=O)N[C@@H](CCC(N)=O)C(=O)N[C@@H](Cc1ccccc1)C(=O)N[C@@H](CC(=O)O)C(=O)N[C@@H](CC(=O)O)C(=O)N[C@@H](C)C(=O)N[C@@H](CC(=O)O)C(N)=O` [Compound 28] (HELM PEPTIDE1{[O=C1OC2(c3ccc(O)cc3Oc3cc(O)ccc32)c2ccc(NC(=S)[*:2])cc21].[O=C(COCCOCCN[*:1])[*:2]].V.P.G.Q.F.D.D.A.D.[am]}$$$$V2.0), the Kd is 0.905 ± 0.104 µM.

As for `CC(=O)N[C@H](C(=O)N1CCC[C@H]1C(=O)NC1CCCCC[C@@H](C(=O)N[C@@H](CC(=O)O)C(=O)N[C@@H](C)C(=O)N[C@@H](CC(=O)O)C(=O)N[C@@H](CCCCNC(=S)Nc2ccc3c(c2)C(=O)OC32c3ccc(O)cc3Oc3cc(O)ccc32)C(N)=O)NC(=O)[C@H](Cc2ccccc2)NC(=O)[C@H](CCC(N)=O)NC1=O)C(C)C` (stereo in doubt) [Compound 21], the Kd came to 0.43 ± 0.096 µM.

The test is the same for the next values; noted with them: PRMT5-MEP50 Kd (µM), supplementary CSV.
In the case of `CC(=O)N[C@H](C(=O)N1CCC[C@H]1C(=O)NCC(=O)N[C@@H](CCC(N)=O)C(=O)N[C@@H](Cc1ccc(C(=O)c2ccccc2)cc1)C(=O)N[C@@H](CC(=O)O)C(=O)N[C@@H](CC(=O)O)C(=O)N[C@@H](C)C(=O)N[C@@H](CC(=O)O)C(=O)N[C@@H](CCCCNC(=S)Nc1ccc2c(c1)C(=O)OC21c2ccc(O)cc2Oc2cc(O)ccc21)C(N)=O)C(C)C` [Compound S23] (Ac-VPGQ[Bpa]DDADK(FITC)-NH2), binding was characterised by a dissociation constant (Kd) of 0.752 ± 0.044 µM.

Still in this test, the particulars now being: supplementary CSV, read-out: PRMT5-MEP50 Kd.
On to `CC(=O)N[C@H](C(=O)N1CCC[C@H]1C(=O)NCC(=O)N[C@@H](CCC(N)=O)C(=O)N[C@@H](Cc1ccccn1)C(=O)N[C@@H](CC(=O)O)C(=O)N[C@@H](CC(=O)O)C(=O)N[C@@H](C)C(=O)N[C@@H](CC(=O)O)C(=O)N[C@@H](CCCCNC(=S)Nc1ccc2c(c1)C(=O)OC21c2ccc(O)cc2Oc2cc(O)ccc21)C(N)=O)C(C)C` [Compound S17] (Ac-VPGQ[2Pal]DDADK(FITC)-NH2), for which the Kd is above 1 µM.

For the compound `CC(=O)N[C@@H](Cc1ccc(O)cc1)C(=O)N1CCC[C@H]1C(=O)NCC(=O)N[C@@H](CCC(N)=O)C(=O)N[C@@H](Cc1ccccc1)C(=O)N[C@@H](CC(=O)O)C(=O)N[C@@H](CC(=O)O)C(=O)N[C@@H](C)C(=O)N[C@@H](CC(=O)O)C(=O)N[C@@H](CCCCNC(=S)Nc1ccc2c(c1)C(=O)OC21c2ccc(O)cc2Oc2cc(O)ccc21)C(N)=O` [Compound S2] (Ac-YPGQFDDADK(FITC)-NH2), the Kd was above 1 µM.

Take `CC(=O)N[C@H](C(=O)N1CCC[C@H]1C(=O)NCC(=O)N[C@@H](CCC(N)=O)C(=O)N[C@@H](Cc1ccccc1)C(=O)N[C@@H](CC(=O)O)C(=O)N[C@@H](CC(C(=O)O)C(=O)O)C(=O)N[C@@H](C)C(=O)N[C@@H](CC(=O)O)C(=O)N[C@@H](CCCCNC(=S)Nc1ccc2c(c1)C(=O)OC21c2ccc(O)cc2Oc2cc(O)ccc21)C(N)=O)C(C)C` [Compound S26] (Ac-VPGQFD[Gla]ADK(FITC)-NH2): the Kd was above 1 µM.

Turning to `CC(=O)N1CCC[C@H]1C(=O)N[C@H](C(=O)NC1CCCCC[C@@H](C(=O)N[C@@H](Cc2ccc([N+](=O)[O-])cc2)C(=O)N[C@@H](CC(C(=O)O)C(=O)O)C(=O)N[C@@H](CCC(N)=O)C(=O)N[C@@H](CCCCNC(=S)Nc2ccc3c(c2)C(=O)OC32c3ccc(O)cc3Oc3cc(O)ccc32)C(N)=O)NC(=O)[C@H](CC(=O)O)NC(=O)[C@H](C)NC1=O)C(C)C` (stereo in doubt) [Compound 52], the Kd was above 2 µM.

With `CC(C)[C@H](NC(=O)[C@H](CCCNC(=N)N)NC(=O)[C@H](CO)NC(=O)COCCOCCNC(=S)Nc1ccc2c(c1)C(=O)OC21c2ccc(O)cc2Oc2cc(O)ccc21)C(=O)N[C@H](C(=O)N1CCC[C@H]1C(=O)N[C@@H]1CNC(=O)C[C@H](C(=O)N[C@@H](CC(=O)O)C(=O)N[C@@H](C)C(=O)N[C@@H](CC(=O)O)C(N)=O)NC(=O)[C@H](Cc2ccccc2)NC(=O)[C@H](CCC(N)=O)NC1=O)C(C)C` [Compound 9], the Kd was above 2 µM.

Regarding `CC(=O)N[C@H](C(=O)N1CCC[C@H]1C(=O)NCC(=O)N[C@@H](CCC(N)=O)C(=O)N[C@@H](Cc1ccccc1)C(=O)N[C@@H](CC(=O)O)C(=O)N[C@@H](CC(=O)O)C(=O)N[C@@H](C)C(=O)N(C)[C@@H](CC(=O)O)C(=O)N[C@@H](CCCCNC(=S)Nc1ccc2c(c1)C(=O)OC21c2ccc(O)cc2Oc2cc(O)ccc21)C(N)=O)C(C)C` [Compound 44] (Ac-VPGQFDDA[NMeD]K(FITC)-NH2), the Kd worked out at 0.587 ± 0.142 µM.

As for `CC(=O)N[C@H](C(=O)N1CCC[C@H]1C(=O)NC1CCC=CCC[C@@H](C(=O)N[C@@H](CC(=O)O)C(=O)N[C@@H](C)C(=O)N[C@@H](CC(=O)O)C(=O)N[C@@H](CCCCNC(=S)Nc2ccc3c(c2)C(=O)OC32c3ccc(O)cc3Oc3cc(O)ccc32)C(N)=O)NC(=O)[C@H](Cc2ccccc2)NC(=O)[C@H](CCC(N)=O)NC1=O)C(C)C` (stereo in doubt) [Compound 20], the Kd is above 2 µM.

Take `CC(=O)N[C@H](C(=O)N1CCC[C@H]1C(=O)NCC(=O)N[C@@H](CCC(N)=O)C(=O)N[C@@H](Cc1ccccc1)C(=O)N[C@@H](CC(=O)O)C(=O)N[C@@H](CC(=O)O)C(=O)N[C@@H](C)C(=O)N[C@@H](CCc1ccccc1)C(=O)N[C@@H](CCCCNC(=S)Nc1ccc2c(c1)C(=O)OC21c2ccc(O)cc2Oc2cc(O)ccc21)C(N)=O)C(C)C` [Compound S34] (Ac-VPGQFDDA[hPhe]K(FITC)-NH2): the Kd was above 1 µM.

In the case of `CC(=O)N[C@H](C(=O)N1CCC[C@H]1C(=O)N[C@@H]1CC=CCC[C@@H](C(=O)N[C@@H](CC(=O)O)C(=O)N[C@@H](C)C(=O)N[C@@H](CC(=O)O)C(=O)N[C@@H](CCCCNC(=S)Nc2ccc3c(c2)C(=O)OC32c3ccc(O)cc3Oc3cc(O)ccc32)C(N)=O)NC(=O)[C@H](Cc2ccccc2)NC(=O)[C@H](CCC(N)=O)NC1=O)C(C)C` (single isomer, unassigned) [18 (isomer 1)], the Kd amounted to 0.352 ± 0.049 µM.

`CC(C)[C@H](NC(=O)[C@H](CCCNC(=N)N)NC(=O)[C@H](CO)NC(=O)COCCOCCNC(=S)Nc1ccc2c(c1)C(=O)OC21c2ccc(O)cc2Oc2cc(O)ccc21)C(=O)N[C@H](C(=O)N1CCC[C@H]1C(=O)N[C@@H]1CCCC[C@H](C(=O)N[C@@H](CC(=O)O)C(=O)N[C@@H](C)C(=O)N[C@@H](CC(=O)O)C(N)=O)NC(=O)[C@H](Cc2ccccc2)NC(=O)[C@H](CCC(N)=O)NC1=O)C(C)C` [Compound 16]: the Kd was above 2 µM.

For `CC(=O)N[C@H](C(=O)N1CCC[C@H]1C(=O)NCC(=O)N[C@@H](CCC(N)=O)C(=O)N[C@@H](Cc1ccccc1)C(=O)N[C@@H](CC(=O)O)C(=O)N(C)[C@@H](CC(=O)O)C(=O)N[C@@H](C)C(=O)N[C@@H](CC(=O)O)C(=O)N[C@@H](CCCCNC(=S)Nc1ccc2c(c1)C(=O)OC21c2ccc(O)cc2Oc2cc(O)ccc21)C(N)=O)C(C)C` [Compound 46, Ac-VPGQFD-(N-Me)D-ADK(Fitc)-NH2] (Ac-VPGQFD[NMeD]ADK(FITC)-NH2), the Kd was above 2 µM.

For `C=CCOC(=O)NCC[C@H](NC(=O)CNC(=O)[C@@H]1CCCN1C(=O)[C@@H](NC(C)=O)C(C)C)C(=O)N[C@@H](Cc1ccccc1)C(=O)N[C@@H](CC(=O)O)C(=O)N[C@@H](CC(=O)O)C(=O)N[C@@H](C)C(=O)N[C@@H](CC(=O)O)C(=O)N[C@@H](CCCCNC(=S)Nc1ccc2c(c1)C(=O)OC21c2ccc(O)cc2Oc2cc(O)ccc21)C(N)=O` [Compound S10] (Ac-VPG[Dab](Alloc)FDDADK(FITC)-NH2), the Kd is above 1 µM.

`CC(=O)N[C@H](C(=O)N1CCC[C@H]1C(=O)NCC(=O)N[C@@H](CCC(N)=O)C(=O)N[C@@H](Cc1ccccc1I)C(=O)N[C@@H](CC(=O)O)C(=O)N[C@@H](CC(=O)O)C(=O)N[C@@H](C)C(=O)N[C@@H](CC(=O)O)C(=O)N[C@@H](CCCCNC(=S)Nc1ccc2c(c1)C(=O)OC21c2ccc(O)cc2Oc2cc(O)ccc21)C(N)=O)C(C)C` [Compound S14] (Ac-VPGQ[Phe(2-I)]DDADK(FITC)-NH2): the Kd is above 1 µM.

`CC(=O)N[C@@H](Cc1ccccc1)C(=O)N1CCC[C@H]1C(=O)NCC(=O)N[C@@H](CCC(N)=O)C(=O)N[C@@H](Cc1ccccc1)C(=O)N[C@@H](CC(=O)O)C(=O)N[C@@H](CC(=O)O)C(=O)N[C@@H](C)C(=O)N[C@@H](CC(=O)O)C(=O)N[C@@H](CCCCNC(=S)Nc1ccc2c(c1)C(=O)OC21c2ccc(O)cc2Oc2cc(O)ccc21)C(N)=O` [Compound S3] (Ac-FPGQFDDADK(FITC)-NH2): the Kd was above 1 µM.

On to `CC(C)[C@H](NC(=O)[C@H](CCCNC(=N)N)NC(=O)[C@H](CO)NC(=O)COCCOCCNC(=S)Nc1ccc2c(c1)C(=O)OC21c2ccc(O)cc2Oc2cc(O)ccc21)C(=O)N[C@H](C(=O)N1CCC[C@H]1C(=O)N[C@@H]1CNC(=O)CC[C@H](C(=O)N[C@@H](CC(=O)O)C(=O)N[C@@H](C)C(=O)N[C@@H](CC(=O)O)C(N)=O)NC(=O)[C@H](Cc2ccccc2)NC(=O)[C@H](CCC(N)=O)NC1=O)C(C)C` [Compound 10], for which the Kd is above 2 µM.

For the compound `CC(=O)N(C)[C@H](C(=O)N1CCC[C@H]1C(=O)NCC(=O)N[C@@H](CCC(N)=O)C(=O)N[C@@H](Cc1ccccc1)C(=O)N[C@@H](CC(=O)O)C(=O)N[C@@H](CC(=O)O)C(=O)N[C@@H](C)C(=O)N[C@@H](CC(=O)O)C(=O)N[C@@H](CCCCNC(=S)Nc1ccc2c(c1)C(=O)OC21c2ccc(O)cc2Oc2cc(O)ccc21)C(N)=O)C(C)C` [Compound 49] (Ac-[NMeV]PGQFDDADK(FITC)-NH2), the Kd was above 2 µM.

As to `CC(=O)N[C@H](C(=O)N1CCC[C@H]1C(=O)NCC(=O)N[C@@H](CCC(N)=O)C(=O)N[C@@H](CCc1ccccc1)C(=O)N[C@@H](CC(=O)O)C(=O)N[C@@H](CC(=O)O)C(=O)N[C@@H](C)C(=O)N[C@@H](CC(=O)O)C(=O)N[C@@H](CCCCNC(=S)Nc1ccc2c(c1)C(=O)OC21c2ccc(O)cc2Oc2cc(O)ccc21)C(N)=O)C(C)C` [Compound S21] (Ac-VPGQ[hPhe]DDADK(FITC)-NH2), the dissociation constant (Kd) is above 1 µM.
